From patent US20260317356A1, “SMALL MOLECULE MODULATORS OF OGG1” (AZKARRA THERAPEUTICS, INC., priority 2023, published 2026) come the findings set out here.

For assay [1], the target named is T1, hOGG1 (Homo sapiens, UniProt O15527). Put plainly: Surface Plasma Resonance with hOGG1 to measure compound affinity (OGG1 SPR Kd). The class given is binding. Conditions: Biacore T-200, immobilized his-tagged OGG1; pH 7.4; 2% DMSO; single-cycle kinetics. Also on record: Protein His-hOGG1 (12-323) was prepared. The method, then:
Surface Plasma Resonance with hOGG1 to Measure Compound Affinity (OGG1 SPR Kd); All the SPR studies were performed on a Biacore T-200 instrument (Cytiva life sciences) using series S NTA sensor chip (cat #BR-1005-32, Cytiva life sciences). Recombinant his-tagged OGG1 (mol. wt. 36003; ChemPartner, Shanghai, China) was immobilized on NTA sensor chip via Ni^2+/NTA chelation using NTA reagent kit (Cytiva life sciences; cat #289950) as per manufacturer's recommended protocol. The running buffer during immobilization contained HEPES (20 mM, pH 7.4), 150 mM NaCl, 0.5 mM TCEP (tris(2-carboxyethyl)phosphine), and 0.005% Tween-20. NTA sensor chip (experimental cell) was first conditioned by injecting regeneration solution (350 mM EDTA, flow rate 30 μL/min, 2 injections 60 each). Additional wash with 50 mM NaOH was used whenever the chip was regenerated (flow rate 30 μL/min, 1 injection of 60 s). The sensor chip was then activated with 0.5 mM NiCl2 (flow rate 10 μL/min, 2 injection of 60 s, leading to a baseline increase of ~40 RU), and the excess Ni^2+ was removed using immobilization buffer containing 3 mM EDTA (flow rate 10 μL/min, 1 injection of 60 s). Finally, OGG1 (diluted to 6.2 μg/mL in running buffer) was injected on the activated sensor chip at a flow rate of 10 μL/min until immobilization level reached ~6000 RU. Any loosely bound protein was removed by passing the immobilization buffer overnight at 20 μL/min. At this point, the drift in baseline was ~0.01 RU/s and the final immobilization level was ~2500 RU. Reference cell was left untreated. SPR binding experiments were performed using binding buffer (20 mM HEPES (pH 7.4), 150 mM NaCl, 0.5 mM TCEP, 0.005% Tween-20, and 2% DMSO) at a flow rate of 30 μL/min. Single-cycle kinetics approach was used for binding analysis which consisted of sequential injections of increasing concentrations of test compound (a 3-fold serial dilution with 5 concentrations; highest 750 or 1500 nM; with final DMSO concentration at 2%) over the immobilized protein without regeneration step between each sample injection. Each injection was 45 seconds long (contact time), followed by a final dissociation of 600 sec. The Biacore T-200 Evaluation software 3.1 (GE Healthcare) was used to determine kinetic parameters from SPR data. All the reported sensograms were reference subtracted and corrected for refractive index contributions from solvent using 8-point solvent correction (1.4 to 2.8% DMSO in binding buffer). Data were fit to both steady state and 1:1 kinetic model to obtain Kon, Koff and binding affinity (Kd).
(SPR reads the build-up and loss of mass on a sensor chip optically.)

Assay [2] has as its target T1, hOGG1. Description: Biochemical fluorescence assay to measure enzymatic activity of hOGG1 (OGG1/APEX IC50). More on the design: Protein His-hOGG1 (12-323) was prepared; His (N); host or cells: E. coli. Conditions: 1 nM OGG1+2 nM APEX+6 nM dsDNA (8-oxo-dG substrate); pH 7.5; RT 40 min; read-out: OGG1/APEX IC50. The gist of the method:
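His-hOGG1 (12-323, E. coli) at 1 nM with 2 nM hAPE1/APEX1, preincubated 20 min RT with compound. Then 6 nM 8-oxo-dG dsDNA substrate added, 40 min at RT in Tris pH 7.5, 100 mM KCl. TAMRA fluorescence (Ex520/Em600) converted to % inhibition vs controls; IC50 from 3-parameter fit of 10-point curve.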

T1 sequence (O15527 12-323): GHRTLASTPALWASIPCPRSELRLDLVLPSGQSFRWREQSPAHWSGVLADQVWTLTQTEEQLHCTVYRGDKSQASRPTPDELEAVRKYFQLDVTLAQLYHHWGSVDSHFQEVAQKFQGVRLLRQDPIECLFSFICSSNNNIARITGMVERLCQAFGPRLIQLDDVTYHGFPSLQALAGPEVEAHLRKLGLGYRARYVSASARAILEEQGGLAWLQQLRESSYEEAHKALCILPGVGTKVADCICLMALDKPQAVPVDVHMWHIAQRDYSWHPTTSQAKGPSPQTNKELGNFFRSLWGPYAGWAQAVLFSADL

On to `COc1cc(NC(=O)[C@H]2CC[C@@H](N3Cc4c(C)cnc(CNC(C)=O)c4NC3=O)CC2)ccc1C` [Example 19, (1s,4s)-4-(8-(Acetamidomethyl)-5-methyl-2-oxo-1,2-dihydropyrido[3,4-d]pyrimidin-3(4H)-yl)-N-(3-methoxy-4-methylphenyl)cyclohexanecarboxamide], for which, at hOGG1 [1], the Kd (as a rule, a measure of binding affinity in units of concentration) is at most 10 nM. The IC50 at hOGG1 [2] is under 100 nM.
For `COc1ccc(NC(=O)[C@H]2CC[C@@H](N3Cc4c(C)cc(NCCN(C)C)cc4NC3=O)CC2)cc1C` [Example 97, (1s,4s)-4-(7-(2-(dimethylamino)ethylamino)-5-methyl-2-oxo-1,2-dihydroquinazolin-3(4H)-yl)-N-(4-methoxy-3-methylphenyl)cyclohexanecarboxamide], in that order: 10 to 100 nM and under 100 nM.
For `COc1cc(NC(=O)[C@H]2CC[C@@H](N3Cc4c(C)ccc(OCC5CNC5)c4NC3=O)CC2)ccc1C` [Example 44, (1s,4s)-4-(8-(Azetidin-3-ylmethoxy)-5-methyl-2-oxo-1,2-dihydroquinazolin-3(4H)-yl)-N-(3-methoxy-4-methylphenyl)cyclohexanecarboxamide], in that order: 10 to 100 nM and under 100 nM.
For `COc1ccc(NC(=O)[C@]2(C)CC[C@H](N3Cc4c(C)ccc(OC)c4NC3=O)CC2)cc1C#N` (single isomer, unassigned) [Example 9, (1s,4s)-N-(3-cyano-4-methoxyphenyl)-4-(8-methoxy-5-methyl-2-oxo-1,2-dihydroquinazolin-3(4H)-yl)-1-methylcyclohexanecarboxamide], in that order: at most 10 nM and under 100 nM.
In turn, `COc1cc(NC(=O)[C@H]2CC[C@@H](N3Cc4c(C)ccc(N5CC6(COC6)C5)c4NC3=O)CC2)ccc1C` [Example 35, (1s,4s)-N-(3-Methoxy-4-methylphenyl)-4-(5-methyl-2-oxo-8-(2-oxa-6-azaspiro[3.3]heptan-6-yl)-1,2-dihydroquinazolin-3(4H)-yl)cyclohexanecarboxamide] displayed a Kd on hOGG1 [1] of 10 to 100 nM. The IC50 on hOGG1 [2] was in the range of 100 to 1000 nM.
In the case of `COc1cc(NC(=O)[C@H]2CC[C@@H](N3Cc4ccccc4NC3=O)CC2)ccc1C` [Example 67, (1s,4s)-N-(3-methoxy-4-methylphenyl)-4-(2-oxo-1,2-dihydroquinazolin-3(4H)-yl)cyclohexanecarboxamide], the Kd at hOGG1 [1] is 10 to 100 nM. Besides, the IC50 at hOGG1 [2] was in the range of 100 to 1000 nM.
For `COc1ccc(NC(=O)[C@]2(C)CC[C@H](N3Cc4c(C)cccc4NC3=O)CC2)cc1Cl` (single isomer, unassigned) [Example 103, (1s,4s)-N-(3-chloro-4-methoxyphenyl)-1-methyl-4-(5-methyl-2-oxo-1,2-dihydroquinazolin-3(4H)-yl)cyclohexanecarboxamide], in that order: 10 to 100 nM and under 100 nM.
For `COc1ccc(NC(=O)[C@H]2CC[C@@H](N3Cc4c(C)ccc(OC)c4NC3=O)CC2)cc1Cl` [Example 3, (1s,4s)-N-(3-Chloro-4-methoxyphenyl)-4-(8-methoxy-5-methyl-2-oxo-1,2-dihydroquinazolin-3(4H)-yl)cyclohexanecarboxamide], in that order: 10 to 100 nM and 100 to 1000 nM.
The matching figures for `COc1ccc(NC(=O)[C@H]2CC[C@@H](N3Cc4c(C)cccc4C3=O)CC2)cc1C#N` [Example 239, (1s,4s)-N-(3-Cyano-4-methoxyphenyl)-4-(4-methyl-1-oxoisoindolin-2-yl)cyclohexanecarboxamide]: 10 to 100 nM and 100 to 1000 nM.
On hOGG1 [1], `COc1ccc(NC(=O)[C@H]2CC[C@@H](N3Cc4c(C)ccnc4NC3=O)CC2)cc1` [Example 15, (1s,4s)-N-(4-methoxyphenyl)-4-(5-methyl-2-oxo-1,2-dihydropyrido[2,3-d]pyrimidin-3(4H)-yl)cyclohexanecarboxamide] registered a Kd of 10 to 100 nM. Besides, the IC50 on hOGG1 [2] was 1000 to 10000 nM.
The matching figures for `COc1ccc(NC(=O)[C@H]2CC[C@@H](N3Cc4c(C)ccnc4NC3=O)CC2)cc1Cl` [Example 14, (1s,4s)-N-(3-Chloro-4-methoxyphenyl)-4-(5-methyl-2-oxo-1,2-dihydropyrido[2,3-d]pyrimidin-3(4H)-yl)cyclohexanecarboxamide]: 10 to 100 nM and 100 to 1000 nM.
With `COc1ccc(NC(=O)[C@H]2CC[C@@H](N3Cc4c(C)ccc(OC)c4NC3=O)CC2)cc1C` [Example 4, (1s,4s)-N-(3-Methyl-4-methoxyphenyl)-4-(8-methoxy-5-methyl-2-oxo-1,2-dihydroquinazolin-3(4H)-yl)cyclohexanecarboxamide], the Kd at hOGG1 [1] lay in the range of 10 to 100 nM. Also, the IC50 on hOGG1 [2] lay in the range of 100 to 1000 nM.
The matching figures for `COc1cc(NC(=O)[C@]2(C)CC[C@H](N3Cc4c(C)ccc(OC)c4NC3=O)CC2)ccc1C` [Example 13, (1s,4s)-N-(3-Methoxy-4-methylphenyl)-4-(8-methoxy-5-methyl-2-oxo-1,2-dihydroquinazolin-3(4H)-yl)-1-methylcyclohexanecarboxamide]: 10 to 100 nM and 100 to 1000 nM.
The matching figures for `COc1cc(NC(=O)[C@H]2CC[C@@H](N3Cc4c(C)ccc(OC)c4NC3=O)CC2)ccc1C` [Example 47, (1s,4s)-N-(3-Methoxy-4-methylphenyl)-4-(8-methoxy-5-methyl-2-oxo-1,2-dihydroquinazolin-3(4H)-yl)cyclohexanecarboxamide]: 10 to 100 nM and under 100 nM.
Compound `COc1cc(NC(=O)[C@H]2CC[C@@H](N3Cc4c(C)cc(N(C)C)cc4C3=O)CC2)ccc1C` [Example 135, (1s,4s)-4-(6-(Dimethylamino)-4-methyl-1-oxoisoindolin-2-yl)-N-(3-methoxy-4-methylphenyl)cyclohexane-1-carboxamide] had a Kd at hOGG1 [1] of 10 to 100 nM. Moreover, the IC50 at hOGG1 [2] is under 100 nM.
With `COc1cc(NC(=O)[C@H]2CC[C@@H](N3Cc4c(C)cc(OCCN5CC(F)(F)C5)cc4C3=O)CC2)ccc1C` [Example 255, (1s,4s)-4-(6-(2-(3,3-Difluoroazetidin-1-yl)ethoxy)-4-methyl-1-oxoisoindolin-2-yl)-N-(3-methoxy-4-methylphenyl)cyclohexanecarboxamide], the Kd on hOGG1 [1] lay within 10 to 100 nM. Besides, the IC50 at hOGG1 [2] lay in the range of 100 to 1000 nM.
The compound `COc1cc(NC(=O)[C@H]2CC[C@@H](N3Cc4c(C)cc(N5CC6(COC6)C5)cc4NC3=O)CC2)ccc1C` [Example 30, (1s,4s)-N-(3-Methoxy-4-methylphenyl)-4-(5-methyl-2-oxo-7-(2-oxa-6-azaspiro[3.3]heptan-6-yl)-1,2-dihydroquinazolin-3(4H)-yl)cyclohexanecarboxamide] had a Kd on hOGG1 [1] of 100 to 1000 nM. For the same compound, at hOGG1 [2], the IC50 was under 100 nM.
For `COc1cc(NC(=O)[C@H]2CC[C@@H](N3Cc4c(C)cc(-c5nnco5)cc4NC3=O)CC2)ccc1C` [Example 92, (1s,4s)-N-(3-methoxy-4-methylphenyl)-4-(5-methyl-7-(1,3,4-oxadiazol-2-yl)-2-oxo-1,2-dihydroquinazolin-3(4H)-yl)cyclohexanecarboxamide], in that order: 10 to 100 nM and under 100 nM.
For `COc1cc(NC(=O)[C@H]2CC[C@@H](N3Cc4c(C)ccc(OC5CNC5)c4NC3=O)CC2)ccc1C` [Example 45], in that order: 10 to 100 nM and under 100 nM.
The matching figures for `COc1cc(NC(=O)[C@H]2CC[C@@H](N3Cc4c(C)ccc(CNC(C)=O)c4NC3=O)CC2)ccc1C` [Example 17, (1s,4s)-4-(8-(Acetamidomethyl)-5-methyl-2-oxo-1,2-dihydroquinazolin-3(4H)-yl)-N-(3-methoxy-4-methylphenyl)cyclohexanecarboxamide]: at most 10 nM and under 100 nM.
